Test results published in US12582656B2, “Nucleotide analogues” (R.G.C.C. Holdings AG, priority 2020, dated 2026).

What was measured:
[1] = molecular target: SARS-COV-2 polymerase NSP12 (Severe acute respiratory syndrome coronavirus 2, UniProt P0DTD1); test: SARS-CoV-2 RNA polymerization assay with RdRp catalytic domain, PAGE gel (FIG. 2); format: biochemical; conditions: rATP split 50:50 with compound, 37° C. for 2 h
[2] = tested on: Polymerase; test: SYBR Green qPCR with modified adenosine analogues added, Ct measured; format: biochemical; conditions: for effect on amplification of the template (qPCR): dose-dependent, efficacy higher for phosphate than hydroxyl at same concentration
Method: In a second set of experiments, the modified adenosine analogues were added in a SYBR Green qPCR mix, and reactions performed using the same template and primers as above. The Ct (Threshold Cycle) parameter was measured for each condition. The Ct is the cycle number at which the fluorescence generated within a reaction crosses the fluorescence threshold. The higher the Ct, the lower the amount of product (or lower expression).
At the same concentration, the efficacy of inhibition of amplification was higher for phosphate than hydroxyl.

[3] = gene 18SrRNA, substance 0.075 mM (Final)
[4] = gene 18SrRNA, substance 0.15 mM (Final)
[5] = gene 18SrRNA, substance 0.3 mM (Final)
[6] = gene ACTB, substance 0.075 mM (Final)
[7] = gene ACTB, substance 0.15 mM (Final)
[8] = gene ACTB, substance 0.3 mM (Final)

SMILES | in vitro replication of the SARS-CoV-2 RNA via the SARS-CoV-2 RNA polymerase [1] | effect on amplification of the template (qPCR) [2] | Ct Mean [2, 3] | Ct Mean [2, 4] | Ct Mean [2, 5] | Ct Mean [2, 6] | Ct Mean [2, 7] | Ct Mean [2, 8]
Nc1ncnc2c1ncn2-c1nc(O)c2ccccc2n1 [Compound A, 2-(6-amino-9H-purin-9-yl)quinazolin-4-ol] | inhibits | decrease of the amplification of the template | 12.88 | 13.43 | 14.84 | 20.08 | 20.55 | 21.14
Nc1ncnc2c1ncn2-c1nc(O)c2ccc(F)cc2n1 [Compound B, 2-(6-amino-9H-purin-9-yl)-7-fluoro-quinazolin-4-ol] | inhibits |  |  |  |  |  |  | 
Nc1ncnc2c1ncn2-c1nc(OP(=O)(O)O)c2ccccc2n1 [Compound C, 2-(6-amino-9H-purin-9-yl)quinazolin-4-yl dihydrogen phosphate] | inhibits | decrease of the amplification of the template | 12.78 | 13.70 | 15.98 | 20.15 | 20.91 | 21.82
Nc1ncnc2c1ncn2C1OC(COP(=O)(O)OP(=O)(O)OP(=O)(O)O)CC1O.[Na] (stereo not drawn) [commercial inhibitor, Cordycepin 5′-triphosphate sodium salt, reference compound] | polymerization blocked |  |  |  |  |  |  | 
